Measurements: paper PMC9486168, “Protein-protein interaction-based high throughput screening for adenylyl cyclase 1 inhibitors: Design, implementation, and discovery of a novel chemotype” (Frontiers in Pharmacology, 2022)
Values joined by “and” are separate entries in the source; they are usually repeats but may differ in a detail not shown here. Equal values may be shown once.

Columns and labels:
AC1-C1b/CaM = target: T1, AC1-C1b/CaM (Homo sapiens, UniProt P0DP23); experiment: AC1-C1b/CaM fluorescence polarization (FP) assay; assay type: binding; settings: for IC50: 100 nM AC1-C1b, 100 nM GST-CaM, 95% CI in brackets; for Ki: Cheng-Prusoff from FP IC50 and Kd; for AC1-CaM FP % inhib: relative to 100 μM CDZ (100% inhibition), highest concentration tested
T1 construct: made in house; host or cells: E. coli BL21-CodonPlus (DE3)-RIPL

AC8-Nt/CaM = target: T2, AC8-Nt/CaM (Homo sapiens, UniProt P0DP23); experiment: AC8-Nt/CaM FP counterscreen assay; assay type: binding; settings: for Ki / Ki (μM) AC8 NT: Cheng-Prusoff from FP IC50 and Kd, n/i given where none; for Ki ratio (AC8 NT/AC1): ratio >1: more potent in AC1/CaM FP;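 for all read-outs here: fluorescence polarization of AC peptide binding GST-CaM in HEPES buffer with CaCl2, compound preincubated with CaM 30 min, peptide read after 2 h at room temperature in dark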
T2 construct: made in house; host or cells: E. coli BL21-CodonPlus (DE3)-RIPL

AC8-C2b/CaM = target: T3, AC8-C2b/CaM (Homo sapiens, UniProt P0DP23); experiment: AC8-C2b/CaM FP counterscreen assay; assay type: binding; settings: for Ki / Ki (μM) AC8 C2b: Cheng-Prusoff from FP IC50 and Kd, n/i given where none; for Ki ratio (AC8-C2b/AC1): ratio >1: more potent in AC1/CaM FP;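 for all read-outs here: fluorescence polarization of AC peptide binding to GST-CaM in HEPES buffer with KCl and 50 µM CaCl2, compound preincubated 30 min with GST-CaM, DMSO and calmidazolium as controls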
T3 construct: made in house; host or cells: E. coli BL21-CodonPlus (DE3)-RIPL

AC1/CaM PPI = target: T4, AC1/CaM PPI (Homo sapiens, UniProt P0DP23); experiment: AC1/CaM NanoBiT assay in HEK293T cells; assay type: cell-based; settings: HEK293T, thapsigargin-stimulated, AUC; for IC50: read-out: Nanobit: AC1-CaM IC50 (μM ± SEM)
T4 construct: human AC1 (hAC1) residues 1–1,118 were cloned; The hCaM residues 1–149, residues 1–1,248 of rat AC8 (rAC8); expressed in transfected cells; host or cells: HEK293T, transient transfection

AC8/CaM PPI = target: T5, AC8/CaM PPI (Homo sapiens, UniProt P0DP23); experiment: AC8/CaM NanoBiT assay in HEK293T cells; assay type: cell-based, rat; settings: for IC50: HEK293T, thapsigargin-stimulated, AUC, read-out: Nanobit: AC8-CaM IC50 (μM ± SEM)
T5 construct: confirmed as an AC1/AC8 non-selective hit against full-length AC1- and AC8-CaM in the NanoBiT assay; The hCaM residues 1–149, residues 1–1,248 of rat AC8 (rAC8); expressed in transfected cells; host or cells: HEK293T, transient transfection

[1] = CellTiter-Glo 2.0 cell viability assay; assay type: cell-based; settings: human, HEK293T cells, pH 7.4; at the compound's AC1/CaM NanoBiT IC50 concentration; read-out: % Viable Cells at AC1 IC50;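 note: luminescence read-out after 30 min compound exposure at 37 °C in HEPES-buffered HBSS, scaled to vehicle-treated cells as 100% and cell-free buffer wells as 0%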
AC1 = target: T6, AC1 (Homo sapiens, UniProt Q08828); experiment: cAMP accumulation assay, AC1-HEK Δ3/6 KO cells; assay type: cell-based; settings: for IC50: initial examination, 10,000 cells per well, 3 μM A23187, 1 h RT, read-out: AC1 IC50 ± SEM
T6 construct: expressed in transfected cells
T6 sequence (Q08828 whole entry): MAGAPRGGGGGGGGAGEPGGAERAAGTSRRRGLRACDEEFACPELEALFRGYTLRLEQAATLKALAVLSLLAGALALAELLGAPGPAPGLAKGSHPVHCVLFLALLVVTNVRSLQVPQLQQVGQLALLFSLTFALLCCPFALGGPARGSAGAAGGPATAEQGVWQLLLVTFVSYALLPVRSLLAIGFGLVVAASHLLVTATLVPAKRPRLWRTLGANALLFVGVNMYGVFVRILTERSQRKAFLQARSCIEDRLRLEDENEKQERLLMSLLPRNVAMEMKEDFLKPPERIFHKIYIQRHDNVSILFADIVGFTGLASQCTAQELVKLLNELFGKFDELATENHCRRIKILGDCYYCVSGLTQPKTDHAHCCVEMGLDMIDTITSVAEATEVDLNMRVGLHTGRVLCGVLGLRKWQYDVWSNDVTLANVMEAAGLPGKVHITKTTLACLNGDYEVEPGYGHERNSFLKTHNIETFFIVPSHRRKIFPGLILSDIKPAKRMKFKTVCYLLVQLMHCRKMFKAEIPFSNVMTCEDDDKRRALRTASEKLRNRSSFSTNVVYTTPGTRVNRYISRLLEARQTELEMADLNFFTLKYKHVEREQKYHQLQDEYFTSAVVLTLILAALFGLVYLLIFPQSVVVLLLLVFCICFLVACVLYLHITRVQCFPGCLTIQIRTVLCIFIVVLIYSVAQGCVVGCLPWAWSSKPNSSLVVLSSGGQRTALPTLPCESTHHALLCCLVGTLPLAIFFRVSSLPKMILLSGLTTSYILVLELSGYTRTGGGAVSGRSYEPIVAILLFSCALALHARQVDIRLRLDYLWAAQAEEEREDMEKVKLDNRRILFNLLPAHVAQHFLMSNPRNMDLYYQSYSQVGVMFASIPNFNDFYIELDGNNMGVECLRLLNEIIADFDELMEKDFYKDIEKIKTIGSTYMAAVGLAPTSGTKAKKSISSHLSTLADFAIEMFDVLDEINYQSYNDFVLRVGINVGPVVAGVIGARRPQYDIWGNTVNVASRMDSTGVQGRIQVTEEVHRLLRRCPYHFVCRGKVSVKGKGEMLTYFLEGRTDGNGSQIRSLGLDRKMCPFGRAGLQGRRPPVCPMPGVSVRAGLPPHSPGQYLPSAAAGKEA
Procedure: Cells were then incubated for 1 h at 37°C and 5% CO2. Cells were then treated with varying concentrations of inhibitors for 30 min, followed by treatment with calcium ionophore A23187 (3 μM) in 500 μM 3-isobutyl-1-methylxanthine (IBMX), a phosphodiesterase inhibitor, for 1 h at RT (Sigma Aldrich, St. Louis, MO). Finally, Cisbio HTRF detection reagents were added and incubated for 1–24 h at RT. Plates were read according to manufacturer’s protocol on an HTRF-compatible plate reader at 620 and 665 nm cAMP concentrations were interpolated from a cAMP standard curve. […] For cytotoxicity assays, compounds were tested at 30 μM and this protocol was used with the exception of detection reagents; CellTiter-Glo 2.0 reagent was used according to manufacturer’s protocol and luminescence was read on the Synergy Neo2 plate reader. Data are normalized to cells treated with vehicle (100%) or 2% tween (0%) and are represented as the percent of vehicle, from the average of three independent experiments (N = 3).

IC50 (AC1-C1b/CaM) | Ki (AC1-C1b/CaM) | Ki (AC8-Nt/CaM) | Ki (AC8-C2b/CaM) | IC50 (AC1/CaM PPI) | IC50 (AC8/CaM PPI) | AC1-CaM FP % inhib (AC1-C1b/CaM) | Ki ratio (AC8 NT/AC1) (AC8-Nt/CaM) | Ki ratio (AC8-C2b/AC1) (AC8-C2b/CaM) | inhibition of AC1 activity (efficacy) (AC1; initial characterization of hits, data not shown) | IC50 (AC1) | Ki (μM) AC8 NT (AC8-Nt/CaM) | Ki (μM) AC8 C2b (AC8-C2b/CaM) | Nanobit: AC1-CaM IC50 (μM ± SEM) (AC1/CaM PPI) | SMILES | IC90 (AC1-C1b/CaM) | viability at 30 min [1] | fold selective for AC8 over AC1 in the NanoBiT assay (AC8/CaM PPI; AC8/CaM vs AC1/CaM NanoBiT)
2.18 µM | 0.51 µM | 3.2 µM | 0.82 µM | 98 ± 1.14 µM | 80.3 ± 1.14 µM | – | – | – | – | – | – | – | – | CN(C)c1ccc2nc3ccc(=[N+](C)C)cc-3sc2c1 [Compound 2, Methylene Blue] | – | 86% | –
4.14 µM | 1 µM | 2.7 µM | 3.6 µM | 29.1 ± 1.2 µM | 18.5 ± 1.26 µM | 94% | 2.7 | 3.7 | – | – | – | – | – | CCCCCCCCCCCCCCCC[N+](C)(C)CCN(Cc1ccc(OC)cc1)c1ncccn1 [Compound 4, Thonzonium] | – | 100% | –
12.7 µM | 3 µM | 6.3 µM | 6.2 µM | – | – | 20% | 2 and 2.1 | 2 and 2.1 | – | – | – | – | – | CCC(C)CC(C)CCCCCCCCC(=O)NC1CC(O)C(NCCN)NC(=O)C2C(O)CCN2C(=O)C(C(O)CCN)NC(=O)C(C(O)C(O)c2ccc(O)cc2)NC(=O)C2CC(O)CN2C(=O)C(C(C)O)NC1=O (centres unmarked) [Compound 5, Caspofungin Acetate] | – | – | –
20 µM | 4.7 µM | 38 µM | 33.5 µM | 40 ± 1.15 µM | 34.6 ± 1.32 µM | 38% | 8.0 | 7.1 | – | – | – | – | – | CN(C(=O)CN(CCO)CC(=O)N(C)C(C)(C)Cc1ccccc1)C(C)(C)Cc1ccccc1 [Compound 8, Oxetacaine] | – | 93.3% | –
33 µM | 7.8 µM | 52.1 µM | 23.8 µM | 1.7 ± 1.17 µM | 4.16 ± 1.15 µM | 47% | – | – | ~75% | 4.09 ± 2.41 µM | – | – | – | CCc1oc2ccccc2c1C(=O)c1cc(Br)c(O)c(Br)c1 [Compound 12, Benzbromarone] | – | 90% | –
58.2 µM | 13.8 µM | – | – | 84 ± 1.7 µM | – | – | AC1 Selective | AC1 Selective | – | – | n/i | n/i | – | CCC12CN3CC(CC)(CN(C1)C31C(=O)N(C)c3ccc(Br)cc31)C2=O (centres unmarked) [Compound 14] | – | 100% | –
75.4 µM | 17.8 µM | – | – | – | – | 53% | AC1 Selective | AC1 Selective | – | – | n/i | n/i | No Inhibition | CN1CCN(CCNC(=O)c2cc3c(=O)n(C)c(=O)n(C)c3s2)CC1 [Compound 17] | – | – | –
43.4 µM | 10.3 µM | – | – | – | – | – | AC1 Selective | AC1 Selective | – | – | n/i | n/i | No Inhibition | Cc1ccc(S(=O)(=O)Nc2cc(N3CCCS3(=O)=O)ccc2C)cc1 [Compound 19] | – | – | –
43 µM | 10.2 µM | 5.9 µM | 4.5 µM | 63 ± 1.34 µM | 70.3 ± 1.13 µM | ~70% | 0.58 | 0.44 | – | 66.3 ± 33.3 µM | – | – | – | CNC(=O)C1=C(Nc2ccc(N(C)C)cc2)c2ccccc2S1(=O)=O [Compound 20] | – | 100% | –

SMILES | IC50 (AC1-C1b/CaM) | Ki (AC1-C1b/CaM) | Ki (AC8-Nt/CaM) | Ki (AC8-C2b/CaM) | IC50 (AC1/CaM PPI) | IC50 (AC8/CaM PPI) | AC1-CaM FP % inhib (AC1-C1b/CaM) | Ki ratio (AC8 NT/AC1) (AC8-Nt/CaM) | Ki ratio (AC8-C2b/AC1) (AC8-C2b/CaM) | inhibition of AC1 activity (efficacy) (AC1; initial characterization of hits, data not shown) | IC50 (AC1) | Ki (μM) AC8 NT (AC8-Nt/CaM) | Ki (μM) AC8 C2b (AC8-C2b/CaM) | Nanobit: AC1-CaM IC50 (μM ± SEM) (AC1/CaM PPI) | IC90 (AC1-C1b/CaM) | viability at 30 min [1] | fold selective for AC8 over AC1 in the NanoBiT assay (AC8/CaM PPI; AC8/CaM vs AC1/CaM NanoBiT)
Clc1ccc(C(c2ccc(Cl)cc2)n2cc[n+](CC(OCc3ccc(Cl)cc3Cl)c3ccc(Cl)cc3Cl)c2)cc1 (centres unmarked) [CDZ, Calmidazolium] | 15.1 µM and ~15 µM | – | – | – | – | – | – | – | – | – | – | – | – | – | ~100 µM | – | –
CC1=C(CCC(=O)O)c2cc3[nH]c(cc4nc(cc5[nH]c(cc1n2)c(C)c5C(C)O)C(C)=C4C(C)O)c(C)c3CCC(=O)O (centres unmarked) [Compound 6, Hematoporphyrin] | 14.7 µM | 3.5 µM | 61.7 µM | 10.1 µM | 38.4 ± 1.17 µM | 11.6 ± 1.24 µM | 131% | 17.8 | 2.9 | – | – | – | – | – | – | 95% | 2- to 4 fold
CCNC(=O)c1cc2c(=O)n(C)c(=O)n(C)c2s1 [Compound 16] | 24.2 µM | 5.7 µM | – | – | – | – | – | AC1 Selective | AC1 Selective | – | – | n/i | n/i | No Inhibition | – | – | –
